Results as given in US20250340554A1, “5-Amino-1H-Pyrrolo[3,2-b]Pyridine-2-Carboxamide Derivatives as MTA-Cooperative Inhibitors of PRMT5” (BeOne Medicines I GmbH, priority 2023, published 2025).

Experiments:
HCT116-MTAP-KO = test: Compounds cell killing in HCT116 isogenic pair (Cell Titer-Glo viability), MTAP-KO cells; format: cell-based; conditions: Homo sapiens, HCT-116, 144 h, 6 days, 0-10 μM compound, * = more than 50% viability inhibition at tested concentration without a full curve
Source text: (§1) HCT116 cell line was obtained from ATCC (CCL-247). It has a mutation in codon 13 of the ras proto-oncogene and can be used as a positive control for PCR assays of mutation in this codon. HCT116-MTAP-KO was knocked-out-MTAP-gene based HCT116, and one single clone was passed for this assay. HCT116-mock-RNA-KO was knocked-out-mock-gene based HCT116 with MTAP wildtype genotype. The base medium for HCT116 isogenic pair is RPMI 1640, HEPES (Gibco, 22400105). To make the complete growth medium, add the following components to the base medium: fetal bovine serum to a final concentration of 10% (Gibco, 10099-141C). The cell line was grown in a humidified 5% CO2 atmosphere at 37° C. and regularly tested for the presence of mycoplasma with MycoAlert™ PLUS Mycoplasma Detection Kit (Lonza, LT07-710).
(§2) • Seed HCT116-mock-RNA-KO (400/well) or HCT116-MTAP-KO (400/well) cells into a 96-well plate (Greiner: 655090), 100 μL/well. • Incubate at 37° C., 5% CO2, overnight. • Add 50 μL fresh growth-medium containing serial dilution of compounds for a final compound concentration of 0-10 μM to each well. • Incubate at 37° C., 5% CO2, 6 days. • The cell viability detected by Cell Titer-Glo (Promega, G7573). Add 70 μL of CellTiter-Glo® reagent in each well. • Incubate at room temperature for 10 minutes to stabilize luminescent signal. • Analyze with Microplate Reader (TECAN, SPARK) and fit IC50 using Prism® 9.

HCT116-mock-RNA-KO = test: Compounds cell killing in HCT116 isogenic pair (Cell Titer-Glo viability), mock-RNA-KO cells (MTAP wildtype); format: cell-based; conditions: Homo sapiens, HCT-116, 144 h, 6 days, 0-10 μM compound
Source text: as §1, §2

Question: What does the source list for `Cc1cc2[nH]c(C(=O)N(Cc3ccc(-c4ccccc4)cn3)C3CCC3)cc2nc1N` [Example B1, 5-amino-N-cyclobutyl-6-methyl-N-((5-phenylpyridin-2-yl)methyl)-1H-pyrrolo[3,2-b]pyridine-2-carboxamide]?
Answer: IC50 (HCT116-MTAP-KO): 359 nM; IC50 (HCT116-mock-RNA-KO): > 10000 nM

Question: Which results are given for `Cc1cc2[nH]c(C(=O)N(Cc3ccc(-c4c(F)cccc4F)cn3)C3CCCc4c(C(C)(C)O)ccnc43)cc2nc1N` (stereo not shown) [Example A7, 5-amino-N-((5-(2,6-difluorophenyl)pyridin-2-yl)methyl)-N-(4-(2-hydroxypropan-2-yl)-5,6,7,8-tetrahydroquinolin-8-yl)-6-methyl-1H-pyrrolo[3,2-b]pyridine-2-carboxamide]?
Answer: IC50 (HCT116-MTAP-KO): < 4.6 nM; IC50 (HCT116-mock-RNA-KO): 339 nM

Question: How did the IC50 (HCT116-MTAP-KO) turn out when `Cc1cc2[nH]c(C(=O)N(Cc3ccc(-c4ccccc4)cn3)C3CCCOC3)cc2nc1N` (stereo not shown) [Example B8, 5-amino-6-methyl-N-((5-phenylpyridin-2-yl)methyl)-N-(tetrahydro-2H-pyran-3-yl)-1H-pyrrolo[3,2-b]pyridine-2-carboxamide] was run?
Answer: The IC50 was 1350 nM.

Question: And the IC50 (HCT116-mock-RNA-KO)?
Answer: The IC50 was > 10000 nM.

Question: What does the source list for `Cc1cc2[nH]c(C(=O)N(Cc3ccc(-c4c(F)cncc4F)cn3)[C@@H]3CCCc4cccnc43)cc2nc1N` [Example A3, (R)-5-amino-N-((3′,5′-difluoro-[3,4′-bipyridin]-6-yl)methyl)-6-methyl-N-(5,6,7,8-tetrahydroquinolin-8-yl)-1H-pyrrolo[3,2-b]pyridine-2-carboxamide]?
Answer: IC50 (HCT116-MTAP-KO): 0.008 nM; IC50 (HCT116-mock-RNA-KO): 49 nM

Question: What does the source list for `Cc1cc2[nH]c(C(=O)N(Cc3ccc(-c4ncnn4C)cn3)[C@@H]3CCCc4cccnc43)cc2nc1N` [Example A13, (R)-5-amino-6-methyl-N-((5-(1-methyl-1H-1,2,4-triazol-5-yl)pyridin-2-yl)methyl)-N-(5,6,7,8-tetrahydroquinolin-8-yl)-1H-pyrrolo[3,2-b]pyridine-2-carboxamide]?
Answer: IC50 (HCT116-MTAP-KO): 83 nM; IC50 (HCT116-mock-RNA-KO): > 10000 nM

Question: `Cc1cc2[nH]c(C(=O)N(Cc3ccc(-c4c(F)cccc4F)cn3)[C@@H]3CCCc4c(C5CC5)ccnc43)cc2nc1N` (stereo in doubt) [Example A6, 5-amino-N-(4-cyclopropyl-5,6,7,8-tetrahydroquinolin-8-yl)-N-((5-(2,6-difluorophenyl)pyridin-2-yl)methyl)-6-methyl-1H-pyrrolo[3,2-b]pyridine-2-carboxamide] was tested. Which IC50 (HCT116-MTAP-KO) did it give?
Answer: Its IC50 is < 4.6 nM.

Question: And the IC50 (HCT116-mock-RNA-KO)?
Answer: The IC50 was 1490 nM.

Question: Which results are given for `CO[C@H]1C[C@H](N(Cc2ccc(-c3ccccc3)cn2)C(=O)c2cc3nc(N)c(C)cc3[nH]2)C1` [Example B6, 5-amino-N-((1r,3r)-3-methoxycyclobutyl)-6-methyl-N-((5-phenylpyridin-2-yl)methyl)-1H-pyrrolo[3,2-b]pyridine-2-carboxamide]?
Answer: IC50 (HCT116-MTAP-KO): 1730 nM; IC50 (HCT116-mock-RNA-KO): > 10000 nM

Question: With `Cc1cc2[nH]c(C(=O)N(Cc3ccc(-c4c(F)cccc4F)cn3)[C@@H]3CCCc4cccnc43)c(F)c2nc1N` [Example A17, (R)-5-amino-N-((5-(2,6-difluorophenyl)pyridin-2-yl)methyl)-3-fluoro-6-methyl-N-(5,6,7,8-tetrahydroquinolin-8-yl)-1H-pyrrolo[3,2-b]pyridine-2-carboxamide] as the compound, how does the IC50 (HCT116-MTAP-KO) read?
Answer: The IC50 was 66 nM.

Question: What about the IC50 (HCT116-mock-RNA-KO) of the same compound?
Answer: The IC50 was 2840 nM.

Question: What does the source list for `Cc1cc2[nH]c(C(=O)N(Cc3cc(Cl)c(-c4ccccc4)cn3)[C@@H]3CCCc4cccnc43)cc2nc1N` [Example A8, (R)-5-amino-N-((4-chloro-5-phenylpyridin-2-yl)methyl)-6-methyl-N-(5,6,7,8-tetrahydroquinolin-8-yl)-1H-pyrrolo[3,2-b]pyridine-2-carboxamide]?
Answer: IC50 (HCT116-MTAP-KO): < 4.6 nM; IC50 (HCT116-mock-RNA-KO): 2040 nM

Question: Which IC50 (HCT116-MTAP-KO) does the source give for `Cc1cc2[nH]c(C(=O)N(Cc3ccc(-c4ccccn4)cn3)C3CCCc4cccnc43)cc2nc1N` (stereo not shown) [Example A16, N-([2,3′-bipyridin]-6′-ylmethyl)-5-amino-6-methyl-N-(5,6,7,8-tetrahydroquinolin-8-yl)-1H-pyrrolo[3,2-b]pyridine-2-carboxamide] here?
Answer: Its IC50 is 17 nM.

Question: And the IC50 (HCT116-mock-RNA-KO)?
Answer: Its IC50 is 1640 nM.

Question: Which results are given for `Cc1cc2[nH]c(C(=O)N(Cc3ccc(-c4c(C)cnn4C)cc3F)C3CCCc4cccnc43)cc2nc1N` (stereo not shown) [Example A18, 5-amino-N-(4-(1,4-dimethyl-1H-pyrazol-5-yl)-2-fluorobenzyl)-6-methyl-N-(5,6,7,8-tetrahydroquinolin-8-yl)-1H-pyrrolo[3,2-b]pyridine-2-carboxamide]?
Answer: IC50 (HCT116-MTAP-KO): 21 nM; IC50 (HCT116-mock-RNA-KO): 2580 nM

Question: What does the source list for `Cc1cc2[nH]c(C(=O)N(Cc3ccc(-c4c(F)cccc4F)cn3)C3CC(F)(F)C3)cc2nc1N` [Example B3, 5-amino-N-(3,3-difluorocyclobutyl)-N-((5-(2,6-difluorophenyl)pyridin-2-yl)methyl)-6-methyl-1H-pyrrolo[3,2-b]pyridine-2-carboxamide]?
Answer: IC50 (HCT116-MTAP-KO): 864 nM; IC50 (HCT116-mock-RNA-KO): > 10000 nM

Question: With `Cc1cc2[nH]c(C(=O)N(Cc3ccc(-c4ccccc4)cn3)[C@@H]3CCCc4cccnc43)cc2nc1N` [Example A2, (R)-5-amino-6-methyl-N-((5-phenylpyridin-2-yl)methyl)-N-(5,6,7,8-tetrahydroquinolin-8-yl)-1H-pyrrolo[3,2-b]pyridine-2-carboxamide] as the compound, how does the IC50 (HCT116-MTAP-KO) read?
Answer: Its IC50 is < 0.5 nM.

Question: And the IC50 (HCT116-mock-RNA-KO)?
Answer: Its IC50 is 486 nM.

Question: With `COCC(COC)N(Cc1ccc(-c2c(F)cccc2F)cn1)C(=O)c1cc2nc(N)c(C)cc2[nH]1` [Example B2, 5-amino-N-((5-(2,6-difluorophenyl)pyridin-2-yl)methyl)-N-(1,3-dimethoxypropan-2-yl)-6-methyl-1H-pyrrolo[3,2-b]pyridine-2-carboxamide] as the compound, how does the IC50 (HCT116-MTAP-KO) read?
Answer: The IC50 was 5.5 nM.

Question: And the IC50 (HCT116-mock-RNA-KO)?
Answer: The IC50 was 1220 nM.

Question: `Cc1cc2[nH]c(C(=O)N(Cc3ccc(-c4c(F)cccc4C#N)cn3)C3CCCc4cccnc43)cc2nc1N` (stereo not shown) [Example A15, 5-amino-N-((5-(2-cyano-6-fluorophenyl)pyridin-2-yl)methyl)-6-methyl-N-(5,6,7,8-tetrahydroquinolin-8-yl)-1H-pyrrolo[3,2-b]pyridine-2-carboxamide] was tested. Which IC50 (HCT116-MTAP-KO) did it give?
Answer: Its IC50 is 4.3 nM.

Question: And the IC50 (HCT116-mock-RNA-KO)?
Answer: The IC50 was 424 nM.

Question: With `Cc1cc2[nH]c(C(=O)N(Cc3ccc(-c4c(F)cccc4Cl)cn3)C3CCCc4cccnc43)cc2nc1N` (stereo not shown) [Example A14, 5-amino-N-((5-(2-chloro-6-fluorophenyl)pyridin-2-yl)methyl)-6-methyl-N-(5,6,7,8-tetrahydroquinolin-8-yl)-1H-pyrrolo[3,2-b]pyridine-2-carboxamide] as the compound, how does the IC50 (HCT116-MTAP-KO) read?
Answer: The IC50 was 2.9 nM.

Question: What about the IC50 (HCT116-mock-RNA-KO) of the same compound?
Answer: The IC50 was 1120 nM.

Question: With `Cc1cc2[nH]c(C(=O)N(Cc3ccc(-c4cn[nH]c4)c(C)n3)C3CCCc4cccnc43)cc2nc1N` (stereo not shown) [Example A9, 5-amino-6-methyl-N-((6-methyl-5-(1H-pyrazol-4-yl)pyridin-2-yl)methyl)-N-(5,6,7,8-tetrahydroquinolin-8-yl)-1H-pyrrolo[3,2-b]pyridine-2-carboxamide] as the compound, how does the IC50 (HCT116-MTAP-KO) read?
Answer: The IC50 was 86 nM.

Question: What about the IC50 (HCT116-mock-RNA-KO) of the same compound?
Answer: Its IC50 is 4180 nM.

Question: Which IC50 (HCT116-MTAP-KO) does the source give for `Cc1cc2[nH]c(C(=O)N(Cc3ccc(-c4ccccc4)cn3)C3CC3)cc2nc1N` [Example B4, 5-amino-N-cyclopropyl-6-methyl-N-((5-phenylpyridin-2-yl)methyl)-1H-pyrrolo[3,2-b]pyridine-2-carboxamide] here?
Answer: The IC50 was 7820 nM.

Question: What about the IC50 (HCT116-mock-RNA-KO) of the same compound?
Answer: Its IC50 is > 10000 nM.

Question: What does the source list for `Cc1cc2[nH]c(C(=O)N(Cc3ccc(-c4c(F)cccc4F)cn3)CC3CC3)cc2nc1N` [Example B5, 5-amino-N-(cyclopropylmethyl)-N-((5-(2,6-difluorophenyl)pyridin-2-yl)methyl)-6-methyl-1H-pyrrolo[3,2-b]pyridine-2-carboxamide]?
Answer: IC50 (HCT116-MTAP-KO): 606 nM; IC50 (HCT116-mock-RNA-KO): 3620 nM

Question: How did the IC50 (HCT116-MTAP-KO) turn out when `Cc1cc2[nH]c(C(=O)N(Cc3ccc(-c4c(Cl)cccc4Cl)cn3)C3CCCc4cccnc43)cc2nc1N` (stereo not shown) [Example A10, 5-amino-N-((5-(2,6-dichlorophenyl)pyridin-2-yl)methyl)-6-methyl-N-(5,6,7,8-tetrahydroquinolin-8-yl)-1H-pyrrolo[3,2-b]pyridine-2-carboxamide] was run?
Answer: The IC50 was 217 nM.

Question: And the IC50 (HCT116-mock-RNA-KO)?
Answer: The IC50 was 3480 nM.

Question: What does the source list for `CO[C@H]1C[C@@H](N(Cc2ccc(-c3ccccc3)cn2)C(=O)c2cc3nc(N)c(C)cc3[nH]2)C1` [Example B7, 5-amino-N-((1s,3s)-3-methoxycyclobutyl)-6-methyl-N-((5-phenylpyridin-2-yl)methyl)-1H-pyrrolo[3,2-b]pyridine-2-carboxamide]?
Answer: IC50 (HCT116-MTAP-KO): 2050 nM; IC50 (HCT116-mock-RNA-KO): > 10000 nM

Question: For `Cc1cc2[nH]c(C(=O)N(Cc3ccc(-c4c(F)cccc4F)cn3)[C@@H]3CCCc4cccnc43)c(Br)c2nc1N` [Example A5, (R)-5-amino-3-bromo-N-((5-(2,6-difluorophenyl)pyridin-2-yl)methyl)-6-methyl-N-(5,6,7,8-tetrahydroquinolin-8-yl)-1H-pyrrolo[3,2-b]pyridine-2-carboxamide], which IC50 (HCT116-MTAP-KO) is on record?
Answer: The IC50 was 167 nM.

Question: And the IC50 (HCT116-mock-RNA-KO)?
Answer: The IC50 was 3340 nM.

Question: For `Cc1cc2[nH]c(C(=O)N(Cc3ccc(-c4c(F)cccc4F)cn3)[C@@H]3CCCc4cccnc43)cc2nc1N` [Example A1, (R)-5-amino-N-((5-(2,6-difluorophenyl)pyridin-2-yl)methyl)-6-methyl-N-(5,6,7,8-tetrahydroquinolin-8-yl)-1H-pyrrolo[3,2-b]pyridine-2-carboxamide], which IC50 (HCT116-MTAP-KO) is on record?
Answer: The IC50 was < 0.5 nM.

Question: What about the IC50 (HCT116-mock-RNA-KO) of the same compound?
Answer: Its IC50 is 155 nM.
